This is an account of results in US8829203B2, “3′,6-substituted indirubins and their biological applications” (Centre National de la Recherche Scientifique (CNRS), priority 2008, dated 2014).

Counter-ions that a name gives are not always drawn. A value given as a limit tells only on which side of the number the result lay.

In data set [1] the test system is GSK-3-phosphorylated β-catenin. In words: β-catenin phosphorylation at GSK-3 sites in SH-SY5Y cells (Western blot / ELISA). The settings on record: 6 hours, 10 μM or range of concentrations, with 2 μM MG132. It is filed as cell-based, human. The method, then: 2a. […] The level of GSK-3-phosphorylated β-catenin was estimated by Western blotting following SDS-PAGE, using an antibody that specifically cross-reacts with GSK-3 phosphorylated β-catenin. […] 2b. Dose-response curves for a selection of indirubins were run in an ELISA assay using the same antibodies directed against GSK-3 phosphorylated β-catenin. SH-SY5Y cells were exposed for 6 hours to a range of concentrations of each indirubin, in the presence of MG132, and extracts were assessed in the ELISA assay. Activity was expressed as percentage of phosphorylated β-catenin in untreated control cells.
Nearly confluent SH-SY5Y human neuroblastoma cells were grown in 96 plates in DMEM (supplemented with 10% FCS and antibiotics). Cells were co-treated with tested compounds and 2 μM MG132 (to allow accumulation of phosphorylated β-catenin) for 6 hours. […] Cells were then subjected to an ELISA assay using antibodies directed against Ser33/Ser37/Thr41-phosphorylated (1:1000) p-catenin obtained from Cell Signaling Technology. Results are expressed in percentage of maximal β-Catenin phosphorylation, i.e. in untreated cells exposed to MG132 only as positive control (100% phosphorylation).
Cells were resuspended, lysed for 30 min at 4° C. in Homogenization Buffer and sonicated. After centrifugation (14000 r.p.m. for 15 min at 4° C.), the protein concentration was determined in the supernatants by the Bradford protein assay (Bio-Rad). Following heat denaturation for 5 min, proteins were separated by 10% NuPAGE pre-cast Bis-Tris Acetate polyacrylamide mini gel (Invitrogen) with MOPS SDS running buffer. Proteins were transferred to 0.45 μm nitrocellulose filters (Schleicher and Schuell). These were blocked with 5% low fat milk in Tris-Buffered Saline—Tween-20, incubated overnight at 4° C. with antibodies directed against Ser33/Ser37/Thr41-phosphorylated β-catenin (1:1000) (Cell Signaling Technology) and analyzed by Enhanced Chemiluminescence (ECL, Amersham).
Cells were exposed to various concentrations […] of each indirubin in the presence of a constant level of MG132 (an inhibitor of the proteasome which prevented the rapid degradation of β-catenin once phosphorylated by GSK-3). The level of GSK-3-phosphorylated was estimated either by Western blotting (with an antibody that specifically cross-reacts with β-catenin when phosphorylated at a GSK-3 site) following SDS-PAGE (FIG. 2a) or by an ELISA assay (FIG. 2b). […] Dose-response curves were obtained with ELISA assay (FIG. 2b).
(In general: In western blotting, separated proteins are transferred to a membrane and probed.)

The target in the next data set is GSK-3α/β. In words: GSK-3α/β kinase assay (GS-1 substrate, 15 μM ATP). The settings on record: 30° C., 30 min, read-out: GSK3 IC50. It is filed as biochemical, porcine. The procedure:
(§1) Blank values were subtracted and activities calculated as pmoles of phosphate incorporated during a […] incubation. The activities were expressed in % of the maximal activity, i.e. in the absence of inhibitors. Controls were performed with appropriate dilutions of dimethylsulfoxide. Phosphorylation of the substrate was assessed by the P81 phosphocellulose assay.
GSK-3α/β was purified from porcine brain by affinity chromatography on immobilized axin^5. […] ATP (3,000 Ci/mmol; 10 mCi/ml) in a final volume of 30 μl. After 30 min. incubation at 30° C., 25 μl aliquots of supernatant were processed as described above.

In a further data set the target is CDK1/cyclin B. In words: CDK1/cyclin B kinase assay (histone H1, 15 μM ATP). It is filed as biochemical, starfish (Marthasterias glacialis). The settings on record: 30° C., 30 min.
The target in another data set is CDK5/p25 (Homo sapiens, UniProt Q00535). Briefly: CDK5/p25 kinase assay (histone H1, 15 μM ATP). It is filed as biochemical. The settings on record: 30° C., 30 min. The procedure:
as §1
CDK5/p25 was reconstituted by mixing equal amounts of recombinant human CDK5 and p25 expressed in E. coli as GST (Glutathione-S-transferase) fusion proteins and purified by affinity chromatography on glutathione-agarose (p25 is a truncated version of p35, the 35 kDa CDK5 activator). Its activity was assayed with histone H1 in buffer C as described for CDK1/cyclin B.

CDK5/p25, sequence (Q00535 whole entry): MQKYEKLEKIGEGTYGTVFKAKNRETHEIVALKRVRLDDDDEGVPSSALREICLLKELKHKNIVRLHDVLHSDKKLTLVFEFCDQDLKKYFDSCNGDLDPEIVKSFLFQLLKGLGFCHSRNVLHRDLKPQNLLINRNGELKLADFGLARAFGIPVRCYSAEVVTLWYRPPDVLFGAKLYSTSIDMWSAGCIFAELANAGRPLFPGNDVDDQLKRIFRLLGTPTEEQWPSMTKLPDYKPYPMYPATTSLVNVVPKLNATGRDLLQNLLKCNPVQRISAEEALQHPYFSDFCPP
CDK5/p25, sequence (Q15078 99-307 partner limits assumed): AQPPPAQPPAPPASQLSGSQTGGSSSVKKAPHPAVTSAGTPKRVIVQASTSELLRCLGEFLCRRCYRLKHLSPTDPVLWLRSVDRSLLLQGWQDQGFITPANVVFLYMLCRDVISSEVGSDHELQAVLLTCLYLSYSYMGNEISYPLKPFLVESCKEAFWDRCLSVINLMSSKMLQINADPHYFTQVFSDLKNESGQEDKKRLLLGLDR

On to `CN1C(=O)C(=C2Nc3ccccc3C2=NO)c2ccc(Br)cc21` [1-methyl-6BIO, reference compound], for which the “Inhibition of β-catenin phosphorylation at GSK-3 sites” value (shortened to “Inhibition”) in data set [1] was “ineffective”.

For orientation: IC50 means the concentration needed to halve the response being measured. The term melting point denotes the temperature, or range, at which the solid turns liquid. In turn, `O=C1Nc2cc(Br)ccc2/C1=C1/Nc2ccccc2/C1=N\OCCBr` [Cpd 1, (2′Z-3′E)-6-Bromoindirubin-3-[O-(2-bromoethyl)-oxime]] showed a melting point of 252 °C. Besides, at GSK-3α/β, the IC50 worked out at 140 nM. Besides, at CDK1/cyclin B, the IC50 is greater than 10000 nM.

With `O=C1Nc2cc(Br)ccc2/C1=C1/Nc2ccccc2/C1=N\OCCO` [Cpd 2, (2′Z-3′E)-6-Bromoindirubin-3′-[O-(2-hydroxyethyl)-oxime]], the IC50 was determined as 1700 nM at GSK-3α/β, 5000 nM at CDK5/p25 and 1700 nM against CDK1/cyclin B.

Compound `O=C1Nc2cc(Br)ccc2/C1=C1/Nc2ccccc2/C1=N\OCC(O)CO` (stereo not shown) [Cpd 3, (2′Z-3′E)-6-Bromoindirubin-3′-[O-(2,3-dihydroxypropyl)-oxime]] gave a melting point greater than 300 °C. For the same compound, the half-inhibitory concentration (IC50) at GSK-3α/β came out at 34 nM. In addition, it took 25 nM to reach half-maximal inhibition on CDK5/p25 (IC50). Also, the “Inhibition” value in data set [1] is listed as “most efficient”. Further, the IC50 on CDK1/cyclin B came to 110 nM.

In turn, `CCN(CC)C(=O)O/N=C1/C(=C2/C(=O)Nc3cc(Br)ccc32)Nc2ccccc21` [Cpd 4, (2′Z-3′E)-6-Bromoindirubin-3′-[O-(N,N-diethylcarbamyl)-oxime]] returned a melting point of 237 °C. On GSK-3α/β, the half-maximal inhibitory concentration (IC50) amounted to 30 nM. Besides, the IC50 at CDK1/cyclin B was greater than 10000 nM.

`CN(C)CCO/N=C1/C(=C2/C(=O)Nc3cc(Br)ccc32)Nc2ccccc21` [Cpd 5, (2′Z-3′E)-6-Bromoindirubin-3′-[O-(2-dimethylaminoethyl)-oxime]]: the “Inhibition” value in data set [1] was “most efficient”.

As to `CCN(CC)CCO/N=C1/C(=C2/C(=O)Nc3cc(Br)ccc32)Nc2ccccc21` [Cpd 6, (2′Z-3′E)-6-Bromoindirubin-3′-[O-(2-diethylaminoethyl)-oxime]], the values for the IC50 on GSK-3α/β, on CDK5/p25 and at CDK1/cyclin B were 35 nM, 20 nM and 90 nM, respectively.

As to `O=C1Nc2cc(Br)ccc2/C1=C1/Nc2ccccc2/C1=N\OCCN1CCCC1` [Cpd 7, (2′Z-3′E)-6-Bromoindirubin-3′-[O-(2-pyrrolidin-1-ylethyl)oxime]], the IC50 on GSK-3α/β amounted to 26 nM; on CDK5/p25, 130 nM; against CDK1/cyclin B it was 500 nM.

`O=C1Nc2cc(Br)ccc2/C1=C1/Nc2ccccc2/C1=N\OCCN1CCOCC1` [Cpd 8, (2′Z-3′E)-6-Bromoindirubin-3′-[O-(2-morpholin-1-ylethyl)oxime]] returned a melting point of 235 °C.

The compound `O=C1Nc2cc(Br)ccc2/C1=C1/Nc2ccccc2/C1=N\OCCN(CCO)CCO` [Cpd 9] displayed a melting point of 201 °C. In data set [1], the “Inhibition” value is on record as “most efficient”.

`CN(CCO/N=C1/C(=C2/C(=O)Nc3cc(Br)ccc32)Nc2ccccc21)CC(O)CO` (stereo not shown) [Cpd 10, (2′Z-3′E)-6-Bromoindirubin-3′-(O-{2-[-methyl, N-(2,3-dihydroxypropyl)amino]ethyl}oxime]] registered a melting point of 195 °C. On GSK-3α/β, the IC50 was determined as 67 nM. In addition, on CDK5/p25, the midpoint of inhibition, the IC50, lay at 240 nM. Besides, the concentration for half-maximal inhibition (IC50) at CDK1/cyclin B stood at 240 nM.

Turning to `O=C1Nc2cc(Br)ccc2/C1=C1/Nc2ccccc2/C1=N\OCCN1CCNCC1` [Cpd 11, (2′Z-3′E)-6-Bromoindirubin-3′-[O-(2-piperazine-1-ylethyl)oxime]], the “Inhibition” value in data set [1] is on record as “most efficient”.

As to `CN1CCN(CCO/N=C2/C(=C3/C(=O)Nc4cc(Br)ccc43)Nc3ccccc32)CC1` [Cpd 12, (2′Z-3′E)-6-Bromoindirubin-3′-{O-[2-(4-methyl-piperazin-1-yl)ethyl]oxime}], the concentration for half-maximal inhibition (IC50) worked out at 7 nM at GSK-3α/β, 400 nM against CDK5/p25 and 400 nM against CDK1/cyclin B. Further, the “Inhibition” value in data set [1] is on record as “most efficient”.

As to `O=C1Nc2cc(Br)ccc2/C1=C1/Nc2ccccc2/C1=N\OCCN1CCN(CCO)CC1` [Cpd 13], in data set [1], the “Inhibition” value was “most efficient”.

In the case of `COCCN1CCN(CCO/N=C2/C(=C3/C(=O)Nc4cc(Br)ccc43)Nc3ccccc32)CC1` [Cpd 14], the IC50 at GSK-3α/β is 11 nM; on CDK5/p25, 500 nM; against CDK1/cyclin B it was 2800 nM.

For `CN(C)CCO/N=C1/C(=C2/C(=O)Nc3cc(Br)ccc32)Nc2ccccc21` [Cpd 16, (2′Z-3′)-6-Bromoindirubin-3′-[O-(2-dimethylaminoethyl)oxime]Hydrochloride], the “Inhibition” value in data set [1] is “most efficient”.

`CCN(CC)CCO/N=C1/C(=C2/C(=O)Nc3cc(Br)ccc32)Nc2ccccc21` [Cpd 17, (2′Z-3′E)-6-Bromoindirubin-3′-[O-(2-diethylaminoethyl)oxime]Hydrochloride]: the IC50 at GSK-3α/β was 27 nM; at CDK5/p25, 40 nM; against CDK1/cyclin B, 190 nM.

Regarding `O=C1Nc2cc(Br)ccc2/C1=C1/Nc2ccccc2/C1=N\OCCN1CCCC1` [Cpd 18, (2′Z-3′)-6-Bromoindirubin-3′-[O-(2-pyrrolidin-1-ylethyl)oxime]Hydrochloride], the results for the half-maximal inhibitory concentration (IC50) on GSK-3α/β, against CDK5/p25 and against CDK1/cyclin B were 54 nM, 100 nM and 450 nM, respectively.

With `CN(CCON=C1C(=C2C(=O)Nc3cc(Br)ccc32)Nc2ccccc21)CC(O)CO` (stereo not shown) [Cpd 21], the IC50 is 23 nM on GSK-3α/β, 100 nM at CDK5/p25 and 150 nM against CDK1/cyclin B.

The compound `O=C1Nc2cc(Br)ccc2/C1=C1/Nc2ccccc2/C1=N\OCCN1CCNCC1` [Cpd 22, (2′Z-3′E)-6-Bromoindirubin-3′-[O-(2-piperazine-1-ylethyl)oxime]Dihydrochloride] had a concentration for half-maximal inhibition (IC50) on CDK5/p25 of 180 nM. Moreover, in data set [1], the “Inhibition” value is recorded as “most efficient”.

Turning to `CN1CCN(CCO/N=C2/C(=C3/C(=O)Nc4cc(Br)ccc43)Nc3ccccc32)CC1` [Cpd 23, (2′Z-3′E)-6-Bromoindirubin-3′-{O-[2-(4-methylpiperazin-1-yl)ethyl]oxime}Dihydrochloride], the IC50 on GSK-3α/β came out at 5 nM; on CDK5/p25, 300 nM; on CDK1/cyclin B it was 300 nM. In data set [1], the “Inhibition” value is on record as “most efficient”.

`O=C1Nc2cc(Br)ccc2/C1=C1/Nc2ccccc2/C1=N\OCCN1CCN(CCO)CC1` [Cpd 24]: the “Inhibition” value in data set [1] is reported as “most efficient”.

With `COCCN1CCN(CCO/N=C2/C(=C3/C(=O)Nc4cc(Br)ccc43)Nc3ccccc32)CC1` [Cpd 25], the IC50 was found to be 20 nM on GSK-3α/β, 400 nM against CDK5/p25 and 1000 nM against CDK1/cyclin B.

Turning to `O=C1Nc2cc(Br)ccc2/C1=C1/Nc2ccccc2/C1=N\OCCN1CCN(CCOCCO)CC1` [Cpd 26, (2′Z-3′E)-6-Bromoindirubin-3′-[O-(2-{4-[2-(2-hydroxyethoxy)-ethyl]piperazin-1-yl}ethyl)oxime]Dihydrochloride], the IC50 is 33 nM on GSK-3α/β, 330 nM at CDK5/p25 and 500 nM at CDK1/cyclin B.
